Assay [1] has as its target T1, TEM-1 β-lactamase (Escherichia coli, UniProt P62593). The assay is described as follows: TEM-1 β-lactamase inhibition assay (nitrocefin hydrolysis, 486 nm). The format is biochemical. As for the experimental part: The inhibition of TEM-1 β-lactamase was determined spectrophotometrically. B-lactamase activity was followed by measuring the hydrolysis of nitrocefin, [3-(2,4-dinitrostyryl)-(6R, 7R)-7-(2-thienylacetamido)-ceph-3-em-4-carboxylic acid, E-isomer], (Calbiochem, San Diego, Calif., USA) at 486 nm. Inhibition assays were performed at 25° C. in 50 mM sodium phosphate, 5% DMSO, pH 7.0. […] Inhibitor was added to the enzyme and incubated for ten minutes before the addition of substrate. Inhibition constants (Ki) for the inhibitors are obtained at the desired temperature and solvent conditions by measuring the rate of substrate hydrolysis at increasing amounts of inhibitors.
(§1) The competitive inhibition of β-lactamase was determined spectrophotometrically using a Varian (Walnut Creek, Calif.) Cary 100 UV-Visible spectrophotometer. β-lactamase activity was followed by measuring the hydrolysis of nitrocefin, [3-(2,4-dinitrostyryl)-(6R, 7R)-7-(2-thienylacetamido)-ceph-3-em-4-carboxylic acid, E-isomer], (Calbiochem, San Diego, Calif.) at 486 nm. Inhibition assays were performed at 25° C. in 50 mM sodium phosphate, 5% DMSO, pH 7.0. […] Penicillin G (Sigma, St. Louis, Mo.) was also used as a substrate to determine KM and kcat.
(§2) Inhibitor was added to protein and incubated for ten minutes before the addition of substrate. Inhibition constants were determined by measuring the loss of P-lactamase activity with increasing inhibitor concentrations and fitting the data to standard equations for competitive inhibition.
(§3) These methods can also be used to express and assay recombinant TEM-1 variant of β-lactamase.

For assay [2], the target named is T1, TEM-1 β-lactamase. The assay is described as follows: Isothermal titration calorimetry, binding to TEM-1 β-lactamase (Example 17). To be noted: ITC. Here is the method: (§4) Isothermal titration calorimetry was performed on a high-precision VP-ITC titration calorimeter (Microcal Inc., Northampton, Mass.). β-Lactamase solutions were titrated with inhibitors in 50 mM sodium phosphate, 2% DMSO, pH 7.0, with β-lactamase concentrations ranging from 15 to 25 μM and inhibitor concentrations ranging from 300 to 1000 μM. The heat evolved from each injection was obtained by integrating the calorimetric signal. Heat of binding was obtained as the difference between the heat of reaction and the heat of inhibitor dilution. Data were analyzed using Origin 7.0 (OriginLab Corporation, Northampton, Mass.).
as §3
Also shown are the results obtained for β-lactamase variant TEM-1.
Background: In ITC the heat of successive injections is recorded.

Assay [3] addresses T2, AmpC β-lactamase (Escherichia coli, UniProt P00811).
T2 construct: made in house; host or cells: E. coli BL21 (DE3)
The assay is described as follows: AmpC β-lactamase competitive inhibition assay (nitrocefin hydrolysis). The format is biochemical. As for the experimental part:
The gene for AmpC β-lactamase (accession number P00811) was obtained from Escherichia coli K12 strain W3110 (American Type Culture Collection, Rockville Md.). E. coli was grown and plasmid (F-lacIq lacPL8 ampC::lambdacI+) was isolated via Qiagen (Valencia, Calif.) mini prep. The gene for AmpC was amplified in two pieces via polymerase chain reaction, ligated and purified by agarose gel electrophoresis. The ligated gene was inserted into a pET200 vector via a TOPO reaction (Invitrogen, Carlsbad, Calif.).
BL21 (DE3) (Invitrogen) cells were transformed by heat-shock with the prepared plasmid. These cells were grown to an OD600 of 0.8 at 37° C. Isopropylthiogalactoside (IPTG) was added to 1 mM, incubation temperature decreased to 25° C. and the cells were grown for an additional 18 hours. After 18 hours, the E. coli was pelleted by centrifugation, and discarded. The growth media was concentrated and dialyzed versus 100 mM Tris, pH 7.0. This solution was run through an equilibrated Q-resin column, and washed with excess 100 mM Tris, pH 7.0.
as §1, §2

Assay [4] concerns the target T2, AmpC β-lactamase. The settings on record: binding to AmpC; ITC. Here is the method:
as §4
Isothermal titration calorimetry was undertaken to determine the thermodynamic characteristics of binding to AmpC β-lactamase.

[5] abbreviates: Ki from Lineweaver-Burke Analysis, values in parenthesis, Lineweaver-Burke analysis.
[6] abbreviates: Ki, 25° C., 50 mM sodium phosphate, 5% DMSO, pH 7.0, enzyme 5 nM, nitrocefin 167 μM.

T2 sequence (P00811 20-377): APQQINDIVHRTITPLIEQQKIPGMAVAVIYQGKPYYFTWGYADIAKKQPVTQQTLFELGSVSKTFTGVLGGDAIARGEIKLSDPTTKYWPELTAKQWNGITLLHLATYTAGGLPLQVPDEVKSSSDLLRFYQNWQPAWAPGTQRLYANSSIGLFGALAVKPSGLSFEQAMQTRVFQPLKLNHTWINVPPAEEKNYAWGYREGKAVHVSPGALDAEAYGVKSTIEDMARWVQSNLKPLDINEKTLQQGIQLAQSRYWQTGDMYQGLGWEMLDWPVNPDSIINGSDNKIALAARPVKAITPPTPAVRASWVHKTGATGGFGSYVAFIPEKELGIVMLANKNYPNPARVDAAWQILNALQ
T1 sequence (P62593 24-286 limits assumed): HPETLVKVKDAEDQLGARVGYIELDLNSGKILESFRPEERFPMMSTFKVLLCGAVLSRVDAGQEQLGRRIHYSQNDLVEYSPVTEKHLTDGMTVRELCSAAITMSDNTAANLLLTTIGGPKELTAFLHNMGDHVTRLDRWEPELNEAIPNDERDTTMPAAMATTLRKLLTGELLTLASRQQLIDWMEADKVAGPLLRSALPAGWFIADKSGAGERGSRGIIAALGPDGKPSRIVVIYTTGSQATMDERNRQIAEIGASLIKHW

The term Ki denotes a measure of affinity in units of concentration, obtained from inhibition or displacement. With `O=C(OCc1cccc2ccccc12)c1cc(B(O)O)cc([N+](=O)[O-])c1` [Compound (3e), 3-(1-Naphthalenemethoxycarbonyl)-5-nitrophenylboronic acid], the affinity at TEM-1 β-lactamase [1] (Ki, TEM-1 β-lactamase) corresponds to a Ki of 17.1 µM. At TEM-1 β-lactamase [2], the ΔG was -6.164 kcal/mol, the ΔH was determined as 0.224 kcal/mol and the “−TΔS” value was -6.388 kcal/mol.
On to `O=C(OCc1cccc(Cl)c1)c1cc(B(O)O)cc([N+](=O)[O-])c1` [Compound (3c), 3-(3-Chlorobenzyloxycarbonyl)-5-nitrophenylboronic acid], for which the results for the Ki on TEM-1 β-lactamase [1] (setting [5]) and on TEM-1 β-lactamase [1] (setting [6]) were 2.35 µM and 25 ± 1.5 µM, respectively.
With `O=C(OCc1c(Cl)cccc1Cl)c1cc(B(O)O)cc([N+](=O)[O-])c1` [Compound (3a), 3-(2,6-Dichlorobenzyloxycarbonyl)-5-nitrophenylboronic], the Ki at TEM-1 β-lactamase [1] (setting [5]) was 4.97 µM; at TEM-1 β-lactamase [1] (setting [6]), 34 ± 2.9 µM.
`Nc1cc(B(O)O)cc(C(=O)O)c1` [Compound (5a), 3–5-carboxylphenylboronic acid] gave a Ki on TEM-1 β-lactamase [1] (setting [6]) of 727 ± 49 µM.
The compound `O=C(Oc1cccc(OC(=O)c2cc(B(O)O)cc([N+](=O)[O-])c2)c1)c1cc(B(O)O)cc([N+](=O)[O-])c1` [Compound (9a), 3-Borono-5-nitrobenzoic acid 1,3-phenylene ester] came in with a Ki at TEM-1 β-lactamase [1] (setting [6]) of 16 ± 1.5 µM. In addition, affinity on TEM-1 β-lactamase [1] (Ki, TEM-1 β-lactamase) was put at a Ki of 16.2 µM. At TEM-1 β-lactamase [2], the ΔG was -7.864 kcal/mol, the ΔH came out at 0.446 kcal/mol and the “−TΔS” value is -8.31 kcal/mol.
With `O=C(Oc1ccccc1Br)c1cc(B(O)O)cc([N+](=O)[O-])c1` [(1u), 3-(2-Bromophenoxycarbonyl)-5-nitro-phenylboronic acid], the values for the Ki on TEM-1 β-lactamase [1] (setting [5]) and on TEM-1 β-lactamase [1] (setting [6]) were 1.68 µM and 25 ± 2.5 µM, respectively.
`O=C(Oc1cccnc1Cl)c1cc(B(O)O)cc([N+](=O)[O-])c1` [Compound (1s), 3-(2-Chloro-3-pyridyloxycarbonyl)-5-nitrophenylboronic acid] had a Ki at TEM-1 β-lactamase [1] (setting [6]) of 42.3 ± 2.4 µM.
Turning to `O=C(Oc1c(Cl)cc(Cl)cc1[N+](=O)[O-])c1cc(B(O)O)cc([N+](=O)[O-])c1` [Compound (1w), 3-(2,4-Dichloro-6-nitro-phenoxycarbonyl)-5-nitro-phenylboronic acid], on TEM-1 β-lactamase [1] (setting [6]), the Ki turned out to be 13 ± 1.1 µM. For the same compound, the affinity at TEM-1 β-lactamase [1] (Ki, TEM-1 β-lactamase), expressed as Ki, was 12.7 µM. For the same compound, at TEM-1 β-lactamase [2], the ΔG is -6.409 kcal/mol, the ΔH was -4.554 kcal/mol and the “−TΔS” value is -1.855 kcal/mol.
Turning to `CCOC(=O)c1ccc(OC(=O)c2cc(B(O)O)cc([N+](=O)[O-])c2)cc1` [Compound (1e), 3-(4-Ethoxycarbonylphenoxycarbonyl)-5-nitrophenylboronic acid], on TEM-1 β-lactamase [1] (setting [6]), the Ki is greater than 1000 µM.
As to `Cc1ccccc1OC(=O)c1cc(B(O)O)cc([N+](=O)[O-])c1` [Compound (1k), 3-(2-Methylphenoxycarbonyl)-5-nitro-phenylboronic acid], at TEM-1 β-lactamase [1] (setting [6]), affinity was put at a Ki of 130 ± 18 µM.
The compound `O=C(Oc1ccccc1F)c1cc(B(O)O)cc([N+](=O)[O-])c1` [Compound (1o), 3-(2-Fluorophenoxycarbonyl)-5-nitrophenylboronic acid] returned a Ki on TEM-1 β-lactamase [1] (setting [6]) of 49.3 ± 4.6 µM.
Consider `O=C(Oc1ccc(F)cc1)c1cc(B(O)O)cc([N+](=O)[O-])c1` [Compound (1q), 3-(4-Fluorophenoxycarbonyl)-5-nitrophenylboronic acid], for which, on TEM-1 β-lactamase [1] (setting [6]), the Ki came out at 100 ± 8 µM.
On to `O=C(Oc1ccccc1)c1cc(B(O)O)cc([N+](=O)[O-])c1` [Compound (1t), 3-Phenoxycarbonyl-5-nitrophenylboronic acid], for which the inhibitory constant (Ki) came to 6.54 µM on TEM-1 β-lactamase [1] (setting [5]) and 95 ± 8.7 µM at TEM-1 β-lactamase [1] (setting [6]).
`Cc1cccc(OC(=O)c2cc(B(O)O)cc([N+](=O)[O-])c2)c1` [(1m), 3-(3-Methylphenoxycarbonyl)-5-nitrophenylboronic acid] showed a Ki at TEM-1 β-lactamase [1] (setting [6]) of 114 ± 12 µM.
`COc1ccccc1OC(=O)c1cc(B(O)O)cc([N+](=O)[O-])c1` [Compound (1l), 3-(2-Methoxylphenoxycarbonyl)-5-nitrophenylboronic acid] returned an inhibitory constant (Ki) at TEM-1 β-lactamase [1] (setting [6]) of 116 ± 7 µM.
For `O=C(Oc1c(Cl)cccc1Cl)c1cc(B(O)O)cc([N+](=O)[O-])c1` [Compound (1n), 3-(2,6-Dichlorophenoxycarbonyl)-5-nitrophenylboronic acid], at TEM-1 β-lactamase [1] (setting [5]), the Ki is 0.62 µM. Moreover, at TEM-1 β-lactamase [1] (setting [6]), the Ki turned out to be 8.8 ± 0.5 µM. Further, the affinity on TEM-1 β-lactamase [1] (Ki, TEM-1 β-lactamase) corresponds to a Ki of 8.8 µM. Moreover, on TEM-1 β-lactamase [2], the ΔG is -5.608 kcal/mol, the ΔH was -1.173 kcal/mol and the “−TΔS” value is -4.435 kcal/mol.
Consider `OB(O)c1cccc2c1Sc1ccccc1S2` [Compound F1012], for which the Ki at TEM-1 β-lactamase [1] (setting [6]) is 113 µM.
On to `O=C(OCc1cccc(B(O)O)c1)c1cc(O)cc(B(O)O)c1` [Compound (3g), 3-(3-Boronobenzyloxycarbonyl)-5-hydroxylphenylboronic acid], for which affinity on AmpC β-lactamase [3] was put at a Ki of 2.69 µM. In addition, at AmpC β-lactamase [4], the ΔG was -7.356 kcal/mol, the ΔH was -3.677 kcal/mol and the “−TΔS” value was -3.679 kcal/mol.
`Nc1cc(B(O)O)cc(C(=O)OCc2cccc(B(O)O)c2)c1` [Compound (3f), 3-(3-Boronobenzyloxycarbonyl)-5-aminophenylboronic acid] gave a Ki at AmpC β-lactamase [3] of 0.724 µM. Also, at AmpC β-lactamase [4], the ΔG is -8.151 kcal/mol, the ΔH was -9.325 kcal/mol and the “−TΔS” value amounted to 1.174 kcal/mol.
For the compound `O=C(O)c1cc(NC(=O)c2ccccc2F)cc(B(O)O)c1` [Compound (4a), 3-(2-Fluorobenzamido)-5-carboxylphenylboronic acid], on TEM-1 β-lactamase [1] (setting [6]), affinity was put at a Ki of 143 ± 9 µM.
Take `O=C(Oc1c(Cl)cc(Cl)cc1Cl)c1cc(B(O)O)cc([N+](=O)[O-])c1` [Compound (1y), 3-(2,4,6-Trichlorophenoxycarbonyl)-5-nitro-phenylboronic acid]: affinity at TEM-1 β-lactamase [1] (Ki, TEM-1 β-lactamase) was put at a Ki of 15.8 µM. In addition, at TEM-1 β-lactamase [2], the ΔG is -6.55 kcal/mol, the ΔH is 0 kcal/mol and the “−TΔS” value was -6.55 kcal/mol.
In the case of `O=C(c1cccc(B(O)O)c1)N1CCCC1` [Compound BB-1005], the Ki at TEM-1 β-lactamase [1] (setting [6]) came out at 392 µM.
Compound `O=C(Oc1ccc(OC(=O)c2cc(B(O)O)cc([N+](=O)[O-])c2)cc1)c1cc(B(O)O)cc([N+](=O)[O-])c1` [Compound (2a), 3-Borono-5-nitrobenzoic acid 1,4-phenylene ester] came in with an inhibition constant (Ki) at TEM-1 β-lactamase [1] (setting [6]) of 22.7 ± 1.3 µM. The compound further showed a Ki on TEM-1 β-lactamase [1] (Ki, TEM-1 β-lactamase) of 22.7 µM. Also, at TEM-1 β-lactamase [2], the ΔG is -7.451 kcal/mol, the ΔH was 0.274 kcal/mol and the “−TΔS” value is -7.725 kcal/mol.
Take `O=C(Oc1c(F)cccc1F)c1cc(B(O)O)cc([N+](=O)[O-])c1` [Compound (1p), 3-(2,6-Difluorophenoxycarbonyl)-5-nitrophenylboronic acid]: the affinity at TEM-1 β-lactamase [1] (setting [6]) corresponds to a Ki of 19.8 ± 1.3 µM. In addition, the affinity on TEM-1 β-lactamase [1] (Ki, TEM-1 β-lactamase) corresponds to a Ki of 19.8 µM. For the same compound, at TEM-1 β-lactamase [2], the ΔG is -5.916 kcal/mol, the ΔH is -6.715 kcal/mol and the “−TΔS” value was determined as 0.799 kcal/mol.
With `O=C(OCc1cccc([N+](=O)[O-])c1)c1cc(B(O)O)cc([N+](=O)[O-])c1` [Compound (3b), 3-(3-Nitrobenzyloxycarbonyl)-5-nitrophenylboronic acid], the values for the Ki at TEM-1 β-lactamase [1] (setting [5]) and at TEM-1 β-lactamase [1] (setting [6]) were 2.76 µM and 27 ± 3.4 µM, respectively.
`CC(C)(C)OC(=O)Oc1cccc(B(O)O)c1` [Compound BB-1004] registered an inhibitory constant (Ki) at TEM-1 β-lactamase [1] (setting [6]) of 297 µM.
`O=C(Oc1ccncc1)c1cc(B(O)O)cc([N+](=O)[O-])c1` [(1r), 3-(4-pyridyloxycarbonyl)-5-nitro-phenylboronic acid] had a Ki on TEM-1 β-lactamase [1] (setting [6]) of 138 ± 2.7 µM.
In the case of `O=C(OCc1ccccc1)c1ccc(B(O)O)cc1` [Compound F1002], the affinity at TEM-1 β-lactamase [1] (setting [6]), expressed as Ki, was 148 µM.
With `CCCCOC(=O)c1cccc(B(O)O)c1` [Compound BB-1003], on TEM-1 β-lactamase [1] (setting [6]), the Ki amounted to 231 µM.

Values taken from patent publication US7183267B2, “β-lactamase inhibitors and methods of use thereof” (priority 2003, dated 2007).
